Measurements: ChEMBL document CHEMBL1201862, “PubChem BioAssay data set” (2004)
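All cell lines were grown in 96-well plates and treated with compound for 48 hours. GI50: concentration for 50% inhibition of growth.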 Activity calls are given as the source filed them. Rule as the data show it: active = GI50 up to about 1.1 µM and inactive = higher.

Assays:
Assay in all cases: NCI-60 cell line screen, 48 h
OVCAR-4 = system: OVCAR-4
SNB-75 = system: SNB-75
SF-539 = system: SF-539
CAKI-1 = system: CAKI-1
M14 = system: M14
RPMI-8226 = system: RPMI-8226
ACHN = system: ACHN
NCI-H226 = system: NCI-H226
SK-MEL-28 = system: SK-MEL-28
HL-60 = system: HL-60
K562 = system: K562
SK-OV-3 = system: SK-OV-3
TK-10 = system: TK-10
OVCAR-3 = system: OVCAR-3
RXF 393 = system: RXF 393
LOX IMVI = system: LOX IMVI
SNB-19 = system: SNB-19
UACC-257 = system: UACC-257
SR = system: SR

Measured: GI50

O=C1c2ccccc2C(=O)c2c(O)c(NCCCNCCO)cc(O)c21
inactive: OVCAR-4 10.2 µM | SNB-75 12.9 µM | SF-539 9.38 µM | CAKI-1 10.2 µM | M14 16.7 µM | RPMI-8226 7.59 µM | ACHN 3.82 µM | NCI-H226 5.61 µM | SK-MEL-28 16.2 µM | HL-60 4.18 µM | K562 1.66 µM | SK-OV-3 12.4 µM | TK-10 8.83 µM | OVCAR-3 12.1 µM

COc1ccc(C(=O)Nc2ccccc2)cc1[N+](=O)[O-]
inactive: SNB-75 59.7 µM | SF-539 > 100 µM | RXF 393 76.7 µM | CAKI-1 > 100 µM | M14 > 100 µM | RPMI-8226 > 100 µM | LOX IMVI > 100 µM | NCI-H226 > 100 µM | SK-MEL-28 > 100 µM | SNB-19 > 100 µM | K562 > 100 µM | SK-OV-3 > 100 µM | UACC-257 > 100 µM | TK-10 > 100 µM | OVCAR-3 58.9 µM

Cc1cc(O)cc2c1O[C@@]1(C)CCC3[C@@]4(C)CC[C@H](O)C(C)(C)C4CC[C@@]3(C)[C@H]1C2 (stereo partly drawn)
inactive: SNB-75 3.03 µM | SF-539 2.23 µM | RXF 393 3.56 µM | CAKI-1 6.81 µM | M14 11.3 µM | RPMI-8226 2.18 µM | LOX IMVI 6.07 µM | ACHN 5.24 µM | NCI-H226 10.7 µM | SK-MEL-28 6.82 µM | HL-60 2.99 µM | K562 2.47 µM | SK-OV-3 3.4 µM | UACC-257 12.9 µM | TK-10 12.5 µM | OVCAR-3 6.31 µM

CC(=O)Nc1ccc(-c2nnc(SCC(=O)Nc3cccc(Cl)c3)o2)cc1
inactive: OVCAR-4 17.9 µM | SNB-75 20 µM | SF-539 20.1 µM | RXF 393 17.4 µM | CAKI-1 19.1 µM | M14 11.8 µM | RPMI-8226 15 µM | LOX IMVI 10.3 µM | ACHN 15.2 µM | NCI-H226 17.7 µM | SK-MEL-28 17.9 µM | SNB-19 22 µM | HL-60 18.2 µM | K562 14.4 µM | SK-OV-3 38 µM | UACC-257 17.3 µM | TK-10 19.6 µM | OVCAR-3 7.11 µM

CC(NS(=O)(=O)c1ccc([N+](=O)[O-])cc1)C(=O)O (stereo not drawn)
inactive: OVCAR-4 > 100 µM | SNB-75 80.7 µM | SF-539 > 100 µM | RXF 393 > 100 µM | CAKI-1 > 100 µM | M14 > 100 µM | RPMI-8226 > 100 µM | LOX IMVI > 100 µM | ACHN > 100 µM | NCI-H226 > 100 µM | SK-MEL-28 > 100 µM | SNB-19 > 100 µM | HL-60 > 100 µM | K562 > 100 µM | SK-OV-3 > 100 µM | UACC-257 > 100 µM | TK-10 > 100 µM | OVCAR-3 > 100 µM

CC(=O)NNc1nc(C)c(C(=O)NNC(=O)C(=O)Nc2c(C)cccc2C)s1
inactive: OVCAR-4 41.1 µM | SNB-75 96.4 µM | SF-539 60.5 µM | RXF 393 32.2 µM | CAKI-1 65.6 µM | M14 54.1 µM | RPMI-8226 26.2 µM | LOX IMVI 18.3 µM | ACHN 37.6 µM | NCI-H226 > 100 µM | SK-MEL-28 76.6 µM | SNB-19 61 µM | HL-60 25.9 µM | K562 34 µM | SK-OV-3 > 100 µM | UACC-257 36.1 µM | TK-10 77.1 µM | OVCAR-3 26.4 µM

CCOC(=O)C1=C(C)N(NC(N)=O)C2(N)N(NC(N)=O)C(C)=C(C(=O)OCC)C12C#N (stereo not drawn)
inactive: OVCAR-4 > 100 µM | SNB-75 > 100 µM | SF-539 > 100 µM | CAKI-1 > 100 µM | M14 > 100 µM | RPMI-8226 > 100 µM | SR > 100 µM | LOX IMVI > 100 µM | ACHN > 100 µM | NCI-H226 > 100 µM | SK-MEL-28 > 100 µM | SNB-19 > 100 µM | K562 > 100 µM | SK-OV-3 > 100 µM | UACC-257 > 100 µM | OVCAR-3 > 100 µM

COC(=O)CC(=O)OC
inactive: OVCAR-4 > 100 µM | SNB-75 > 100 µM | SF-539 > 100 µM | RXF 393 > 100 µM | CAKI-1 > 100 µM | M14 > 100 µM | RPMI-8226 > 100 µM | LOX IMVI > 100 µM | ACHN > 100 µM | SNB-19 > 100 µM | HL-60 > 100 µM | K562 > 100 µM | SK-OV-3 > 100 µM | UACC-257 > 100 µM | TK-10 > 100 µM | OVCAR-3 > 100 µM

CCOC(=O)c1[nH]c2c(OC)n[n+]([O-])cc2c1[N+](=O)[O-]
inactive: OVCAR-4 19.8 µM | SNB-75 9.23 µM | SF-539 27.9 µM | RXF 393 15.8 µM | M14 19.9 µM | RPMI-8226 18.1 µM | LOX IMVI 16.4 µM | ACHN 17.3 µM | NCI-H226 26.9 µM | SK-MEL-28 15.7 µM | SNB-19 25.6 µM | HL-60 19.7 µM | K562 14.4 µM | SK-OV-3 > 100 µM | UACC-257 19 µM | TK-10 16.4 µM | OVCAR-3 20.6 µM

Clc1ccc(C2=Nc3ccccc3SC(c3ccc(Cl)c(Cl)c3)C2)c(Cl)c1 (stereo not drawn)
inactive: OVCAR-4 17.1 µM | SNB-75 15.4 µM | SF-539 17.7 µM | RXF 393 15.6 µM | CAKI-1 13.5 µM | M14 16 µM | RPMI-8226 2.39 µM | LOX IMVI 8.15 µM | ACHN 14.2 µM | NCI-H226 19 µM | SK-MEL-28 15.7 µM | SNB-19 20.7 µM | HL-60 8.45 µM | K562 6 µM | SK-OV-3 28.1 µM | UACC-257 19.5 µM | TK-10 20.6 µM | OVCAR-3 13.3 µM

Clc1ccc(SCCCCCCCCCCSc2ccc(Cl)cc2)cc1
inactive: OVCAR-4 > 100 µM | SNB-75 > 100 µM | SF-539 > 100 µM | RXF 393 > 100 µM | CAKI-1 > 100 µM | M14 > 100 µM | RPMI-8226 > 100 µM | LOX IMVI > 100 µM | ACHN > 58.7 µM | NCI-H226 > 100 µM | SK-MEL-28 > 100 µM | SNB-19 > 100 µM | HL-60 > 100 µM | K562 > 91.2 µM | SK-OV-3 > 100 µM | UACC-257 > 57 µM | TK-10 > 61.9 µM | OVCAR-3 > 56.8 µM

COc1ccc(C2=NC(CO)[C@H](c3ccccc3)O2)cc1OC (stereo partly drawn)
inactive: OVCAR-4 > 100 µM | SNB-75 > 100 µM | SF-539 > 100 µM | CAKI-1 > 100 µM | M14 > 100 µM | LOX IMVI > 100 µM | ACHN > 100 µM | NCI-H226 > 100 µM | SNB-19 > 100 µM | HL-60 > 100 µM | K562 > 100 µM | SK-OV-3 96.4 µM | UACC-257 > 100 µM | OVCAR-3 > 100 µM
